Measurements as given in patent US9050371B2 (Eli Lilly and Company, priority 2008, dated 2015).

Legend:
[1] = test system: healthy volunteers; test: Euglycaemic glucose clamp (glucose infusion rate) after single SC dose in healthy volunteers; assay type: in vivo, human
Experimental: In all treatment periods, subjects undergo a euglycaemic clamp procedure for up to 24/36 hours following each insulin compound injection. Glucose infusion rates (GIR) are adjusted to maintain euglycaemia, with the documented GIR over time providing the GD measure of insulin action. The aim of the euglycaemic glucose clamp is to maintain euglycaemia through glucose infusion after the administration of a dose of an insulin compound. It is assumed that endogenous insulin secretion and hepatic glucose output are minimal and that any glucose that is translocated out of the glucose space (i.e., glucose metabolized) is the direct consequence of the administered exogenous insulin. The GIR in this case will be the glucodynamic (GD) measure of the insulin action over time. All glucose clamp studies are performed after an overnight fast of approximately 8 hours. On the morning of the study, a small catheter is placed into a vein of one arm, ideally in the ante-cubital fossa, for administration of 20% dextrose solution (buffered to near neutral pH) under the control of a volumetric pump. Another catheter is placed, ideally in the wrist or hand for venous glucose sampling. This area is heated with a warming device to approximately 55-60° C. for sampling arterialized venous blood. Blood samples are obtained at the bedside for immediate determination of whole blood glucose concentrations using an automated glucose oxidase technique. After basal blood sampling and a stabilization period of approximately 30 minutes, each subject receives a dose of insulin compound administered subcutaneously. The start of the subcutaneous injection of an insulin compound is defined as time zero. Following completion of dosing, in conjunction with frequent blood sampling for measurement of blood glucose, glucose is infused intravenously at a variable rate in order to maintain euglycaemia for up to 24 or 36 hours after insulin administration.
Blood sampling occurs approximately every 10 minutes for approximately 30 minutes prior to dosing and continued every 5-10 minutes for the first 2 hours after dosing (with the option to sample as frequently as every 2.5 minutes), and then reduced to 10-30 minute intervals up to the end of clamp.
During the glucose clamp, the glucose infusion rate is adjusted to maintain a pre-determined target blood glucose concentration for the individual subject. Preferably, the target concentration is close to the fasting blood glucose. The aim of the glucose clamp procedure is to maintain the blood glucose concentrations within +5% of the pre-dose target value, which is defined as 5 mg/dL below the mean fasting blood glucose. Thus, blood glucose concentrations are kept constant while the GIR varied. […]

[2] = calculated from published PK profiles; cited from earlier work

| Substance | GIR profile shape ([1]; Part C, 0.5 mg/kg) | time GD maintained ([1]; Part C, 0.5 mg/kg) | GIR compared with peak GIR response for glargine ([1]; Part C, 0.5 mg/kg, glargine 0.5 U/kg, data not shown) | duration of action compared with insulin glargine ([1]; humans, FIG. 2: LY 0.225 mg/kg, glargine 0.5 U/kg) | peak-trough (PT) ratio [2] |
| --- | --- | --- | --- | --- | --- |
| LY: 20 kDa PEGylated insulin lispro, about 95% or more at B28 and 5% or less at A1, prepared as in Example 9 | “peakless” | greater than 36 hours | exceeded the peak GIR response for glargine | longer than that of insulin glargine | – |
| glargine | – | – | – | – | 1.2-2.6 |
